Consider one compound from patent US11819257B2, “Compositions, treatment systems and methods for improved cooling of lipid-rich tissue” (Zeltiq Aesthetics, Inc., priority 2014, dated 2023).

The test system of this assay is skin at abdominal treatment sites. In words: Clinical detection of freeze events during abdominal CoolSculpting cooling treatment after pre-treatment with cryoprotectant and mechanical stimulation. In kind it is in vivo, human. The following applies: patients, 14 total cycles at −15° C. applicator set point, 60 minute cycle, 3 cc topical, brushed for 2 minutes before cooling. An excerpt: This section describes an example of the clinical use of pre-treating the skin of a patient at a treatment site with mechanical stimulation in the presence of topically applied cryoprotectant prior to applying cooling treatment for affecting subcutaneous lipid-rich cells. Additional embodiments of the present technology may be practiced with features similar to or different than those described with respect to this example. Among other features of the present technology, this example illustrates that mechanical stimulation in the presence of cryoprotectant prior to cooling treatment may have utility in the prevention of freezing events or damage when cooling subcutaneous lipid-rich tissue for aesthetic or health-related reasons. Thirteen patients scheduled for abdominoplasty where offered to undergo a CoolSculpting® treatment on abdominal treatment sites. Each patient underwent two CoolSculpting® treatment sessions having a 60 minute cycle time and a −15° C. applicator temperature set point. The vacuum was set at 60 per typical recommended settings and a standard CoolSculpting® gel pad and liner were used per instructions. Six patients were assigned to a control group and had no pre-treatment performed prior to the CoolSculpting® treatment. […] Freeze events were detected using a freeze detection algorithm such as that described in U.S. Pat. No. 8,285,390.

Regarding `CC(O)CO` (centres unmarked) [100% PG, propylene glycol], the “Probability of Freeze Event” value worked out at 0%. For the same compound, under “freeze detection algorithm”, the “Freeze Events” value is given as 0.
